Read-outs that look alike come from different tables or passages of the source.
What was measured:
[1] = tested on: recombinant HMPV CAN97-83 (MPV-GFP1); test: HMPV antiviral assay (MPV-GFP1 eGFP fluorescence in Vero E6 cells); type: cell-based; settings: human metapneumovirus, Vero C1008, 120 h, read-out: HMPV EC50
How it was run: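 Vero E6 cells in serum-free OptiMEM with 0.5 μg/mL TPCK-trypsin infected with eGFP-expressing HMPV CAN97-83 (MPV-GFP1) at MOI 0.05. 8-point […] ½-step dilutions from 8 or 2 μM, 0.5% DMSO, 5 days at 32 °C. eGFP fluorescence normalized to infected untreated wells; EC50 from four-parameter logistic fit.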

[2] = tested on: genotype A, "Long" strain RSV; test: RSV-A assay (CPE, ATPlite readout in Hep-2 cells); type: cell-based; settings: human respiratory syncytial virus
How it was run: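 Protection from RSV-induced cytopathic effect, measured as ATPlite luminescence after 5 days, gave EC50 values. Assay used genotype A Long strain at MOI 0.1 on Hep-2 cells seeded at 8,000/well in DMEM growth media with 10% FBS; compounds tested as 2-fold dilutions in duplicate.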

[3] = HEp-2, Hep-2 cells, genotype A "Long" strain RSV, MOI 0.1, read-out: Human RSV-A (“Long” strain) EC50

| SMILES | EC50 [1] | EC50 [2, 3] | EC50 ([2]; HEp-2, read-out: Human RSV-A (“Long” strain) EC50) |
| --- | --- | --- | --- |
| C[C@]1(C(N)=O)COc2c1cc([C@@](O)(CNC(=O)c1cc(OC3CC3)c3ncc(Cl)cc3c1)C(F)(F)F)nc2-c1ccc(F)cc1 [Example 521] | < 500 nM | < 200 nM |  |
| COc1cc(C(=O)NC[C@](O)(c2cc3c(c(-c4ccc(F)cc4)n2)OC[C@]3(C)C(N)=O)C2CC2)cc2cc(C3CC3)cnc12 [Example 522] | < 500 nM | < 200 nM |  |
| COc1cc(C(=O)NC[C@](O)(c2cc3c(c(-c4ccc(F)c(Cl)c4)n2)OC[C@]3(C)C(N)=O)C2CC2)cc2cc(C3CC3)cnc12 [Example 523] | < 500 nM | < 200 nM |  |
| Cc1cnc2ccc(C(=O)NC[C@](O)(c3cc4c(c(-c5ccc(F)cc5)n3)OC[C@]4(C)C(N)=O)C(F)(F)F)cc2c1 [Example 524] | < 500 nM | < 200 nM |  |
| C[C@]1(C(N)=O)COc2c1cc([C@@](O)(CNC(=O)c1ccc3ncc(Cl)cc3c1)C(F)(F)F)nc2-c1ccc(F)cc1 [Example 526] | < 500 nM | < 200 nM |  |
| C[C@]1(C(N)=O)COc2c1cc([C@@](O)(CNC(=O)c1ccc3ncc(F)cc3c1)C(F)(F)F)nc2-c1ccc(F)cc1 [Example 527] | > 500 nM | < 200 nM |  |
| COc1cc(C(=O)NC[C@](O)(c2cc3c(c(-c4ccc(F)cc4)n2)OC[C@]3(C)C(N)=O)C2CC2)cc2cc(Cl)cnc12 [Example 528] | < 500 nM | < 200 nM |  |
| COc1cc(C(=O)NC[C@](O)(c2cc3c(c(-c4ccc(F)c(Cl)c4)n2)OC[C@]3(C)C(N)=O)C2CC2)cc2cc(Cl)cnc12 [Example 529] | < 500 nM | < 200 nM |  |
| C[C@]1(C(N)=O)COc2c1cc([C@@](O)(CNC(=O)c1cc(OC3CC3)c3ncc(Cl)cc3c1)C1CC1)nc2-c1ccc(F)cc1 [Example 530] | < 500 nM | < 200 nM |  |
| C[C@]1(C(N)=O)COc2c1cc([C@@](O)(CNC(=O)c1cc(OC3CC3)c3ncc(Cl)cc3c1)C1CC1)nc2-c1ccc(F)c(Cl)c1 [Example 531] | < 500 nM | < 200 nM |  |
| COc1cc(C(=O)NC[C@](O)(c2cc3c(c(-c4ccc(F)c(Cl)c4)n2)OC[C@]3(C)C(N)=O)C(F)(F)F)cc2cc(C3CC3)cnc12 [Example 532] | < 500 nM | < 200 nM |  |
| COc1cc(C(=O)NC[C@](O)(c2cc3c(c(-c4ccc(F)cc4)n2)OC[C@]3(C)C(N)=O)C(F)(F)F)cc2cc(C)c(C)nc12 [Example 533] | < 500 nM | < 200 nM |  |
| COc1cc(C(=O)NC[C@](O)(c2cc3c(c(-c4ccc(F)c(Cl)c4)n2)OC[C@]3(C)C(N)=O)C(F)(F)F)cc2cc(C)c(C)nc12 [Example 534] | < 500 nM | < 200 nM |  |
| COc1cc(C(=O)NC[C@](O)(c2cc3c(c(-c4ccc(F)cc4)n2)OC[C@]3(C)C(N)=O)C2CC2)cc2cc(C(F)(F)F)cnc12 [Example 535] | < 500 nM | < 200 nM |  |
| COc1cc(C(=O)NC[C@](O)(c2cc3c(c(-c4ccc(F)c(Cl)c4)n2)OC[C@]3(C)C(N)=O)C2CC2)cc2cc(C(F)(F)F)cnc12 [Example 536] | < 500 nM | < 200 nM |  |
| C[C@]1(C(N)=O)COc2c1cc([C@@](O)(CNC(=O)c1cc(OC(F)F)c3nc(N)sc3c1)C(F)(F)F)nc2-c1ccc(F)cc1 [Example 537] | > 500 nM | < 200 nM |  |
| CC(C)Oc1cc(C(=O)NC[C@](O)(c2cc3c(c(-c4ccc(F)cc4)n2)OC[C@]3(C)C(N)=O)C(F)(F)F)cc2sc(N)nc12 [Example 538] | > 500 nM | < 200 nM |  |
| C[C@]1(C(N)=O)COc2c1cc([C@@](O)(CNC(=O)c1cc(OC(F)F)c3nc(N)sc3c1)C1CC1)nc2-c1ccc(F)cc1 [Example 539] | < 500 nM | < 200 nM |  |
| C[C@]1(C(N)=O)COc2c1cc([C@@](O)(CNC(=O)c1cc(OC(F)F)c3nc(N)sc3c1)C1CC1)nc2-c1ccc(F)c(Cl)c1 [Example 540] | < 500 nM | < 200 nM |  |
| C[C@]1(C(N)=O)COc2c1cc([C@@](O)(CNC(=O)c1cc(OC(F)(F)F)c3nc(N)sc3c1)C(F)(F)F)nc2-c1ccc(F)cc1 [Example 541] | > 500 nM | < 200 nM |  |
| C[C@]1(C(N)=O)COc2c1cc([C@@](O)(CNC(=O)c1cc(OC(F)(F)F)c3nc(N)sc3c1)C(F)(F)F)nc2-c1ccc(F)c(Cl)c1 [Example 542] | < 500 nM | < 200 nM |  |
| C[C@]1(C(N)=O)COc2c1cc([C@@](O)(CNC(=O)c1cc(OC3CC3)c3nc(N)sc3c1)C(F)(F)F)nc2-c1ccc(F)cc1 [Example 543] | < 500 nM | < 200 nM |  |
| C[C@]1(C(N)=O)COc2c1cc([C@@](O)(CNC(=O)c1cc(OC3CC3)c3nc(N)sc3c1)C(F)(F)F)nc2-c1ccc(F)c(Cl)c1 [Example 544] | < 500 nM | < 200 nM |  |

| SMILES | EC50 [1] | EC50 [2, 3] | EC50 ([2]; HEp-2, read-out: Human RSV-A (“Long” strain) EC50) |
| --- | --- | --- | --- |
| Cc1cnc2c(Nc3cnccn3)cc(C(=O)NC[C@](O)(c3cc4c(c(-c5ccc(F)cc5)n3)OC[C@]4(C)C(N)=O)C(F)(F)F)cc2c1 [Example 547] | > 500 nM | < 200 nM |  |
| Cc1cnc2c(Nc3cncnc3)cc(C(=O)NC[C@](O)(c3cc4c(c(-c5ccc(F)cc5)n3)OC[C@]4(C)C(N)=O)C(F)(F)F)cc2c1 [Example 548] | > 500 nM | < 200 nM |  |
| Cc1cnc2c(OC(=O)NC3(C)COC3)cc(C(=O)NC[C@](O)(c3cc4c(c(-c5ccc(F)cc5)n3)OC[C@]4(C)C(N)=O)C(F)(F)F)cc2c1 [Example 549] | > 500 nM |  | < 200 nM |
| Cc1cnc2c(NC(=O)NC3(C)CC3)cc(C(=O)NC[C@](O)(c3cc4c(c(-c5ccc(F)cc5)n3)OC[C@]4(C)C(N)=O)C(F)(F)F)cc2c1 [Example 550] | < 500 nM | < 200 nM |  |
| Cc1cnc2c(NC(=O)NCC(C)(C)O)cc(C(=O)NC[C@](O)(c3cc4c(c(-c5ccc(F)cc5)n3)OC[C@]4(C)C(N)=O)C(F)(F)F)cc2c1 [Example 551] | > 500 nM | < 200 nM |  |
| Cc1cnc2c(NC(=O)C3(C)CC3)cc(C(=O)NC[C@](O)(c3cc4c(c(-c5ccc(F)cc5)n3)OC[C@]4(C)C(N)=O)C(F)(F)F)cc2c1 [Example 552] | < 500 nM | < 200 nM |  |
| Cc1cnc2c(NC(=O)C3(F)CC3)cc(C(=O)NC[C@](O)(c3cc4c(c(-c5ccc(F)cc5)n3)OC[C@]4(C)C(N)=O)C(F)(F)F)cc2c1 [Example 553] | < 500 nM | < 200 nM |  |
| COc1cc(C(=O)NC[C@](O)(c2cc3c(c(-c4ccc(F)cc4)n2)OC[C@]3(C)C(N)=O)C(F)(F)F)cc2cc(C(F)(F)F)cnc12 [Example 557] | < 500 nM | < 200 nM |  |
| COc1cc(C(=O)NC[C@](O)(c2cc3c(c(-c4ccc(F)c(Cl)c4)n2)OC[C@]3(C)C(N)=O)C(F)(F)F)cc2cc(C(F)(F)F)cnc12 [Example 558] | < 500 nM | < 200 nM |  |
| Cc1cnc2c(Nc3cccnn3)cc(C(=O)NC[C@](O)(c3cc4c(c(-c5ccc(F)cc5)n3)OC[C@]4(C)C(N)=O)C(F)(F)F)cc2c1 [Example 560] | < 500 nM | < 200 nM |  |
| Cc1cnc2c(NC(=O)c3ncco3)cc(C(=O)NC[C@](O)(c3cc4c(c(-c5ccc(F)cc5)n3)OC[C@]4(C)C(N)=O)C(F)(F)F)cc2c1 [Example 561] | < 500 nM | < 200 nM |  |
| COc1cc(C(=O)NC[C@](O)(c2cc3c(c(-c4ccc(F)cc4)n2)OC[C@]3(C)C(N)=O)C(F)(F)F)cc2sc(C)nc12 [Example 562] | < 500 nM | < 200 nM |  |
| C[C@]1(C(N)=O)COc2c1cc([C@@](O)(CNC(=O)c1ccc3[nH]ncc3c1)C(F)(F)F)nc2-c1ccc(F)cc1 [Example 588] | > 500 nM | < 200 nM |  |
| COc1cccc2[nH]c(C(=O)NC[C@](O)(c3cc4c(c(-c5ccc(F)cc5)n3)OC[C@]4(C)C(N)=O)C(F)(F)F)cc12 [Example 595] | < 500 nM | < 200 nM |  |
| Cc1nc2cc(C(=O)NC[C@](O)(c3cc4c(c(-c5ccc(F)cc5)n3)OC[C@]4(C)C(N)=O)C(F)(F)F)ccc2[nH]1 [Example 600] | > 500 nM | < 200 nM |  |
| Cc1cnc2c(Nc3ncncn3)cc(C(=O)NC[C@](O)(c3cc4c(c(-c5ccc(F)cc5)n3)OC[C@]4(C)C(N)=O)C(F)(F)F)cc2c1 [Example 611] | > 500 nM | < 200 nM |  |
| Cc1cnc2c(Nc3nccnn3)cc(C(=O)NC[C@](O)(c3cc4c(c(-c5ccc(F)cc5)n3)OC[C@]4(C)C(N)=O)C(F)(F)F)cc2c1 [Example 613] | < 500 nM | < 200 nM |  |
| Cc1cnc2c(Oc3ncccn3)cc(C(=O)NC[C@](O)(c3cc4c(c(-c5ccc(F)cc5)n3)OC[C@]4(C)C(N)=O)C(F)(F)F)cc2c1 [Example 615] | > 500 nM | < 200 nM |  |
| Cc1cc2cc(C(=O)NC[C@](O)(c3cc4c(c(-c5ccc(F)cc5)n3)OC[C@]4(C)C(N)=O)C(F)(F)F)ccc2nn1 [Example 616] | < 500 nM | < 200 nM |  |
| Cc1cc2cc(C(=O)NC[C@](O)(c3cc4c(c(-c5ccc(F)c(Cl)c5)n3)OC[C@]4(C)C(N)=O)C(F)(F)F)ccc2nn1 [Example 617] | < 500 nM | < 200 nM |  |
| Cc1cnc2c(NC(=O)c3ccon3)cc(C(=O)NC[C@](O)(c3cc4c(c(-c5ccc(F)cc5)n3)OC[C@]4(C)C(N)=O)C(F)(F)F)cc2c1 [Example 621] | > 500 nM | < 200 nM |  |
| Cc1cnc2c(NC(=O)NCC(C)(C)F)cc(C(=O)NC[C@](O)(c3cc4c(c(-c5ccc(F)cc5)n3)OC[C@]4(C)C(N)=O)C(F)(F)F)cc2c1 [Example 622] | < 500 nM | < 200 nM |  |
| Cc1cnc2c(NC(=O)c3nc(C)co3)cc(C(=O)NC[C@](O)(c3cc4c(c(-c5ccc(F)cc5)n3)OC[C@]4(C)C(N)=O)C(F)(F)F)cc2c1 [Example 623] | > 500 nM | < 200 nM |  |
